The values below come from the supplement of paper PMC10307832.

Holding throughout (test): relative viability (nuclei count vs DMSO), 5 days (fraction); higher = more cells survive
Compound in the test “Ponatinib + AZD7762”: Cc1ccc(C(=O)Nc2ccc(CN3CCN(C)CC3)c(C(F)(F)F)c2)cc1C#Cc1cnc2cccnn12 [Ponatinib] + NC(=O)Nc1cc(-c2cccc(F)c2)sc1C(=O)N[C@H]1CCCNC1 [AZD7762] (partner 0.2 µM)
A digest of the protocol:
(§1)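 Five library-drug doses in √10 steps were combined with a fixed anchor-drug dose, or a single drug was given alone, by pin tool to lung cancer cell lines in 1536-well plates the day after seeding. Nuclei were stained and counted after 5 days. Relative viability is the nuclei count in treated wells over that in vehicle wells, taken as the median of duplicate plates.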

Compound in the test “Ponatinib + OSI-027”: Cc1ccc(C(=O)Nc2ccc(CN3CCN(C)CC3)c(C(F)(F)F)c2)cc1C#Cc1cnc2cccnn12 [Ponatinib] + COc1cccc2cc(-c3nc([C@H]4CC[C@H](C(=O)O)CC4)n4ncnc(N)c34)[nH]c12 [OSI-027] (partner 0.5 µM)
A digest of the protocol:
as §1

Compound in the test “Ponatinib + Tozasertib”: Cc1ccc(C(=O)Nc2ccc(CN3CCN(C)CC3)c(C(F)(F)F)c2)cc1C#Cc1cnc2cccnn12 [Ponatinib] + Cc1cc(Nc2cc(N3CCN(C)CC3)nc(Sc3ccc(NC(=O)C4CC4)cc3)n2)n[nH]1 [Tozasertib] (partner 0.1 µM)
A digest of the protocol:
as §1

Compound in the test “Pazopanib + Alpelisib”: Cc1ccc(Nc2nccc(N(C)c3ccc4c(C)n(C)nc4c3)n2)cc1S(N)(=O)=O [Pazopanib] + Cc1nc(NC(=O)N2CCC[C@H]2C(N)=O)sc1-c1ccnc(C(C)(C)C(F)(F)F)c1 [Alpelisib] (partner 2 µM)
A digest of the protocol: as §1

For NCI-H1975, the relative viability came out at 0.599 in the test with Ponatinib + AZD7762 (first compound 0.002 µM); 0.706 with Ponatinib + AZD7762 (first compound 0.006325 µM); 0.726 in the test with Ponatinib + AZD7762 (first compound 0.06325 µM); 0.615 with Ponatinib + AZD7762 (first compound 0.2 µM); 0.602 with Ponatinib + OSI-027 (first compound 0.002 µM); 0.575 with Ponatinib + OSI-027 (first compound 0.006325 µM). Besides, the relative viability was found to be 0.47 with Ponatinib + OSI-027 (first compound 0.06325 µM); 0.503 with Ponatinib + OSI-027 (first compound 0.2 µM); 0.677 in the test with Ponatinib + Tozasertib (first compound 0.002 µM); 0.774 with Ponatinib + Tozasertib (first compound 0.006325 µM); 0.275 in the test with Ponatinib + Tozasertib (first compound 0.06325 µM); 0.196 with Ponatinib + Tozasertib (first compound 0.2 µM). Further, the relative viability with Pazopanib + Alpelisib (first compound 0.01 µM) amounted to 0.684; with Pazopanib + Alpelisib (first compound 0.03162 µM), 0.648; with Pazopanib + Alpelisib (first compound 0.1 µM), 0.608; with Pazopanib + Alpelisib (first compound 0.3162 µM), 0.74; with Pazopanib + Alpelisib (first compound 1 µM) it was 0.662.

Take NCI-H2170: the relative viability in the test with Ponatinib + AZD7762 (first compound 0.002 µM) came out at 0.799; in the test with Ponatinib + AZD7762 (first compound 0.006325 µM) it was 0.927; with Ponatinib + AZD7762 (first compound 0.06325 µM) it was 0.789; in the test with Ponatinib + AZD7762 (first compound 0.2 µM), 0.833; with Ponatinib + OSI-027 (first compound 0.002 µM) it was 0.698; in the test with Ponatinib + OSI-027 (first compound 0.006325 µM), 0.724. The relative viability with Ponatinib + OSI-027 (first compound 0.06325 µM) is 0.749; in the test with Ponatinib + OSI-027 (first compound 0.2 µM), 0.694; with Ponatinib + Tozasertib (first compound 0.002 µM), 0.755; with Ponatinib + Tozasertib (first compound 0.006325 µM), 0.674; with Ponatinib + Tozasertib (first compound 0.06325 µM) it was 0.651; in the test with Ponatinib + Tozasertib (first compound 0.2 µM) it was 0.665. Moreover, the relative viability was 0.73 in the test with Pazopanib + Alpelisib (first compound 0.01 µM); 0.794 with Pazopanib + Alpelisib (first compound 0.03162 µM); 0.877 in the test with Pazopanib + Alpelisib (first compound 0.1 µM); 0.646 in the test with Pazopanib + Alpelisib (first compound 0.3162 µM); 0.787 in the test with Pazopanib + Alpelisib (first compound 1 µM).

LU99A: the relative viability with Ponatinib + AZD7762 (first compound 0.002 µM) stood at 0.308; in the test with Ponatinib + AZD7762 (first compound 0.006325 µM), 0.421; with Ponatinib + AZD7762 (first compound 0.06325 µM) it was 0.399; with Ponatinib + AZD7762 (first compound 0.2 µM), 0.48; with Ponatinib + OSI-027 (first compound 0.002 µM), 0.299; in the test with Ponatinib + OSI-027 (first compound 0.006325 µM), 0.319. The relative viability in the test with Ponatinib + OSI-027 (first compound 0.06325 µM) is 0.32; with Ponatinib + OSI-027 (first compound 0.2 µM) it was 0.278; with Ponatinib + Tozasertib (first compound 0.002 µM), 0.227; with Ponatinib + Tozasertib (first compound 0.006325 µM), 0.293; with Ponatinib + Tozasertib (first compound 0.06325 µM), 0.251; with Ponatinib + Tozasertib (first compound 0.2 µM) it was 0.263. In addition, the relative viability with Pazopanib + Alpelisib (first compound 0.01 µM) is 0.428; with Pazopanib + Alpelisib (first compound 0.03162 µM), 0.505; in the test with Pazopanib + Alpelisib (first compound 0.1 µM), 0.416; in the test with Pazopanib + Alpelisib (first compound 0.3162 µM) it was 0.517; in the test with Pazopanib + Alpelisib (first compound 1 µM) it was 0.544.

Regarding NCI-H2405, the relative viability with Ponatinib + AZD7762 (first compound 0.002 µM) is 0.622; with Ponatinib + AZD7762 (first compound 0.006325 µM), 0.73; with Ponatinib + AZD7762 (first compound 0.06325 µM) it was 0.705; in the test with Ponatinib + AZD7762 (first compound 0.2 µM), 0.542; with Ponatinib + OSI-027 (first compound 0.002 µM), 0.613; with Ponatinib + OSI-027 (first compound 0.006325 µM), 0.642. Further, the relative viability worked out at 0.605 with Ponatinib + OSI-027 (first compound 0.06325 µM); 0.631 with Ponatinib + OSI-027 (first compound 0.2 µM); 0.728 with Ponatinib + Tozasertib (first compound 0.002 µM); 0.809 with Ponatinib + Tozasertib (first compound 0.006325 µM); 0.711 with Ponatinib + Tozasertib (first compound 0.06325 µM); 0.681 in the test with Ponatinib + Tozasertib (first compound 0.2 µM). The relative viability in the test with Pazopanib + Alpelisib (first compound 0.01 µM) turned out to be 0.743; with Pazopanib + Alpelisib (first compound 0.03162 µM) it was 0.787; with Pazopanib + Alpelisib (first compound 0.1 µM), 0.861; with Pazopanib + Alpelisib (first compound 0.3162 µM), 1.09; in the test with Pazopanib + Alpelisib (first compound 1 µM) it was 0.838.

NCI-H2009: the relative viability with Ponatinib + OSI-027 (first compound 0.002 µM) turned out to be 0.486; in the test with Ponatinib + OSI-027 (first compound 0.006325 µM) it was 0.496; in the test with Ponatinib + OSI-027 (first compound 0.06325 µM), 0.759; in the test with Ponatinib + OSI-027 (first compound 0.2 µM) it was 0.545; in the test with Ponatinib + Tozasertib (first compound 0.002 µM), 0.713; in the test with Ponatinib + Tozasertib (first compound 0.006325 µM), 0.726. The relative viability with Ponatinib + Tozasertib (first compound 0.06325 µM) is 0.848; with Ponatinib + Tozasertib (first compound 0.2 µM), 0.749; with Pazopanib + Alpelisib (first compound 0.01 µM), 1.08; with Pazopanib + Alpelisib (first compound 0.03162 µM), 1.19; in the test with Pazopanib + Alpelisib (first compound 0.1 µM), 1.26; in the test with Pazopanib + Alpelisib (first compound 0.3162 µM) it was 1.09. In the test with Pazopanib + Alpelisib (first compound 1 µM), the relative viability was 1.

Consider HCC-15, for which the relative viability with Ponatinib + AZD7762 (first compound 0.002 µM) is 1.18; in the test with Ponatinib + AZD7762 (first compound 0.006325 µM), 1.19; with Ponatinib + AZD7762 (first compound 0.06325 µM), 1.32; with Ponatinib + AZD7762 (first compound 0.2 µM), 1.31; in the test with Ponatinib + OSI-027 (first compound 0.002 µM) it was 0.643; in the test with Ponatinib + OSI-027 (first compound 0.006325 µM), 0.677. For the same cell line, the relative viability in the test with Ponatinib + OSI-027 (first compound 0.06325 µM) was 0.843; with Ponatinib + OSI-027 (first compound 0.2 µM) it was 0.599; with Ponatinib + Tozasertib (first compound 0.002 µM), 0.401; in the test with Ponatinib + Tozasertib (first compound 0.006325 µM), 0.479; with Ponatinib + Tozasertib (first compound 0.06325 µM) it was 0.432; with Ponatinib + Tozasertib (first compound 0.2 µM), 0.328. For the same cell line, the relative viability is 0.788 with Pazopanib + Alpelisib (first compound 0.01 µM); 0.931 with Pazopanib + Alpelisib (first compound 0.03162 µM); 0.885 with Pazopanib + Alpelisib (first compound 0.1 µM); 0.909 in the test with Pazopanib + Alpelisib (first compound 0.3162 µM); 0.986 with Pazopanib + Alpelisib (first compound 1 µM).

For the cell line HCC-44, the relative viability with Ponatinib + AZD7762 (first compound 0.002 µM) was 0.992; with Ponatinib + AZD7762 (first compound 0.006325 µM), 1.02; with Ponatinib + AZD7762 (first compound 0.06325 µM), 1.02; with Ponatinib + AZD7762 (first compound 0.2 µM), 0.997; with Ponatinib + OSI-027 (first compound 0.002 µM), 0.482; in the test with Ponatinib + OSI-027 (first compound 0.006325 µM) it was 0.413. In addition, the relative viability with Ponatinib + OSI-027 (first compound 0.06325 µM) turned out to be 0.402; in the test with Ponatinib + OSI-027 (first compound 0.2 µM), 0.408; with Ponatinib + Tozasertib (first compound 0.002 µM), 0.946; with Ponatinib + Tozasertib (first compound 0.006325 µM), 0.882; in the test with Ponatinib + Tozasertib (first compound 0.06325 µM), 0.87; in the test with Ponatinib + Tozasertib (first compound 0.2 µM), 0.595. In addition, the relative viability turned out to be 0.664 in the test with Pazopanib + Alpelisib (first compound 0.01 µM); 0.806 with Pazopanib + Alpelisib (first compound 0.03162 µM); 0.766 with Pazopanib + Alpelisib (first compound 0.1 µM); 0.74 in the test with Pazopanib + Alpelisib (first compound 0.3162 µM); 0.793 with Pazopanib + Alpelisib (first compound 1 µM).

As to COR-L23, the relative viability came out at 0.707 in the test with Ponatinib + OSI-027 (first compound 0.002 µM); 0.73 with Ponatinib + OSI-027 (first compound 0.006325 µM); 0.766 with Ponatinib + OSI-027 (first compound 0.06325 µM); 0.604 with Ponatinib + OSI-027 (first compound 0.2 µM); 0.209 with Ponatinib + Tozasertib (first compound 0.002 µM); 0.213 in the test with Ponatinib + Tozasertib (first compound 0.006325 µM). For the same cell line, the relative viability with Ponatinib + Tozasertib (first compound 0.06325 µM) was 0.171; with Ponatinib + Tozasertib (first compound 0.2 µM), 0.142; with Pazopanib + Alpelisib (first compound 0.01 µM), 0.752; in the test with Pazopanib + Alpelisib (first compound 0.03162 µM), 0.957; with Pazopanib + Alpelisib (first compound 0.1 µM), 0.993; in the test with Pazopanib + Alpelisib (first compound 0.3162 µM) it was 0.925. Moreover, in the test with Pazopanib + Alpelisib (first compound 1 µM), the relative viability was 0.717.

For the cell line HCC-78, the relative viability with Ponatinib + AZD7762 (first compound 0.002 µM) is 0.52; with Ponatinib + AZD7762 (first compound 0.006325 µM), 0.537; in the test with Ponatinib + AZD7762 (first compound 0.06325 µM), 0.669; with Ponatinib + AZD7762 (first compound 0.2 µM) it was 0.647; with Ponatinib + OSI-027 (first compound 0.002 µM) it was 0.332; with Ponatinib + OSI-027 (first compound 0.006325 µM), 0.418. For the same cell line, the relative viability was 0.366 with Ponatinib + OSI-027 (first compound 0.06325 µM); 0.528 in the test with Ponatinib + OSI-027 (first compound 0.2 µM); 0.385 with Ponatinib + Tozasertib (first compound 0.002 µM); 0.511 in the test with Ponatinib + Tozasertib (first compound 0.006325 µM); 0.404 in the test with Ponatinib + Tozasertib (first compound 0.06325 µM); 0.33 in the test with Ponatinib + Tozasertib (first compound 0.2 µM). For the same cell line, the relative viability in the test with Pazopanib + Alpelisib (first compound 0.01 µM) turned out to be 0.284; with Pazopanib + Alpelisib (first compound 0.03162 µM), 0.406; in the test with Pazopanib + Alpelisib (first compound 0.1 µM) it was 0.3; in the test with Pazopanib + Alpelisib (first compound 0.3162 µM) it was 0.35; in the test with Pazopanib + Alpelisib (first compound 1 µM), 0.388.

As to NCI-H1299, the relative viability with Pazopanib + Alpelisib (first compound 0.01 µM) was 1.07; with Pazopanib + Alpelisib (first compound 0.03162 µM), 0.976; with Pazopanib + Alpelisib (first compound 0.1 µM), 1.12; in the test with Pazopanib + Alpelisib (first compound 0.3162 µM), 1; with Pazopanib + Alpelisib (first compound 1 µM), 1.06.
